{"source": "patent US10799467B2", "about": "“Use of the phytocannabinoid cannabidivarin (CBDV) in the treatment of epilepsy” (GW Pharma Limited, priority 2010, dated 2020)", "key": {"[1]": {"tested_on": "epileptiform burst activity in hippocampal slices (Mg2+-free model)", "assay": "Mg2+-free in vitro epileptiform model in hippocampal brain slices (multi-electrode array)", "format": "cell-based, Wistar rats", "method": "Use of isolated CBDV in two in vitro epileptiform models in hippocampal brain slices\nHippocampal slices were produced acutely from P>21 Wistar rats and activity recorded by multi-electrode arrays (MEA).\nTo induce epileptiform activity, either Mg^2+ was removed (Mg^2+-free model) or 100 μM 4-aminopyridine was added (4-AP model). 30 min after epileptiform burst activity was established, CBDV was added cumulatively (1, 10, 100 μM; 30 min each).\nThe effects of CBDV on epileptiform burst amplitude and duration were measured (Table 2.1)."}, "PTZ-induced seizures [2]": {"tested_on": "PTZ-induced seizures", "assay": "PTZ model of generalised seizures (80 mg/kg PTZ)", "format": "in vivo, Wistar rats", "conditions": "for proportion of animals that died / proportion of animals reaching tonic-clonic seizures: vehicle 8 of 15", "method": "Male Wistar rats (P24-29; 75-110 g) were used to assess the effects of the phytocannabinoid CBDV in the PTZ model of generalised seizures. Animals were habituated to the test environment, cages, injection protocol and handling prior to experimentation. Animals were housed in a room at 21° C. on a 12 hour light: dark cycle (lights on 0900) in 50% humidity, with free access to food and water.\nFive 6 L Perspex tanks with lids were placed on a single bench with dividers between them. Closed-circuit television (CCTV) cameras were mounted onto the dividers to observe rat behaviour. Sony Topica CCD cameras (Bluecherry, USA) were linked via BNC cables to a low-noise PC via Brooktree digital capture cards (Bluecherry, USA). Zoneminder (http://www.zoneminder.com) software was used to monitor rats, start and end recordings and manage video files. In-house Linux scripts were used to encode video files into a suitable format for further offline analysis using The Observer (Noldus Technologies).\nA range of doses of PTZ (50-100 mg/kg body weight) were used to determine the best dose for induction of seizures (see below). As a result, a dose of 80 mg/kg injected intra-peritoneally (IP; stock solution 50 mg/ml in 0.9% saline) were used to screen the CBDV.\nOn the day of testing, pure CBDV was administered via intra-peritoneal (i.p.) injection at doses of 50, 100 and 200 mg/kg alongside animals that were injected with a matched volume of the cannabinoid vehicle (2:1:17 ethanol:Cremophor: 0.9% w/v NaCl solution), which served as the negative control group. Animals were then observed for 1 hour, after which time they received an IP injection of 80 mg/kg PTZ. Negative vehicle controls were performed in parallel with cannabinoid-dosed subjects. After receiving a dose of PTZ, animals were observed and videoed to determine the severity of seizure and latency to several seizure behaviour types (see in vivo analysis, below). Animals were filmed for half an hour after last sign of seizure, and then returned to their cage.\nAnimals were observed during experimental procedures, but all analysis was performed offline on recorded video files using The Observer behavioural analysis software (Noldus, Netherlands). A seizure severity scoring system was used to determine the levels of seizure experienced by subjects (Pohl & Mares, 1987). All signs of seizure were detailed for all animals.\nThe latency (in seconds) from injection of PTZ to first myoclonic jerk (FMJ; score of 1), and to the animal attaining “forelimb clonus with tonic component and body twist” (score of 3.5) were recorded. FMJ is an indicator of the onset of seizure activity, whilst >90% of animals developed scores of 3.5, and so is a good marker of the development of more severe seizures. Data are presented as the mean±S.E.M. within an experimental group.\nThis is given as the median value for each experimental group based on the scoring scale below.\nThe percentage of animals within an experimental group that died as a result of PTZ-induced seizures. Note that the majority of animals that developed tonic-clonic seizures (scores of 4 and 5) died as a result, and that a score of 6 (death) automatically denotes that the animal also experienced tonic-clonic seizures.\nThis is given as the mean±S.E.M. for each experimental group.\nFor measures of latency and severity, one way analysis of variance (ANOVA) was performed on the four groups together (vehicle and 50, 100 and 200 mg/kg CBDV) to detect overall effects of CBDV (p≤0.05 considered significant).\nSignificant ANOVA results were followed by post hoc tests to test differences between vehicle and drug groups (Tukey's test, p≤0.05 considered significant).\nMethodology as described in Example 2.\nGeneral methodology is as described in Example 2.\nThree doses of THCV BDS were assessed against a concentration of PTZ known to induce moderate seizures in rats (70 mg/kg; see pilot, above). […]"}, "PTZ-induced seizures [3]": {"tested_on": "PTZ-induced seizures", "assay": "CBDV with standard anti-epileptic drugs in the PTZ model of generalised seizures", "format": "in vivo, Wistar rats", "method": "As described in Example 2 above. Varying doses of the SAED's ethosuximide and valproate were tested in combination to isolated CBDV at a dose of 200 mg/kg."}, "[4]": {"conditions": "valproate (varying doses) co-administered with CBDV 200 mg/kg"}}}
{"molecule": "C=C(C)[C@@H]1CCC(C)=C[C@H]1c1c(O)cc(CCC)cc1O", "note": "[CBDV, Cannabidivarin]", "values": [{"measurement": "Burst amplitude (% of control) CA1", "setting": "[1]; CBDV 1 μM", "result": "82.23 ± 10.4 % of control"}, {"measurement": "Burst duration (% of control) CA1", "setting": "[1]; CBDV 1 μM", "result": "99.3 ± 4.5 % of control"}, {"measurement": "Burst amplitude (% of control) CA3", "setting": "[1]; CBDV 1 μM", "result": "112.7 ± 13.7 % of control"}, {"measurement": "Burst duration (% of control) CA3", "setting": "[1]; CBDV 1 μM", "result": "101.7 ± 2.3 % of control"}, {"measurement": "Burst amplitude (% of control) DG", "setting": "[1]; CBDV 1 μM", "result": "89.8 ± 8.6 % of control"}, {"measurement": "Burst duration (% of control) DG", "setting": "[1]; CBDV 1 μM", "result": "90.6 ± 4.5 % of control"}, {"measurement": "Burst amplitude (% of control) CA1", "setting": "[1]; CBDV 10 μM", "result": "79.9 ± 6.9 % of control"}, {"measurement": "Burst duration (% of control) CA1", "setting": "[1]; CBDV 10 μM", "result": "91.2 ± 3.8 % of control"}, {"measurement": "Burst amplitude (% of control) CA3", "setting": "[1]; CBDV 10 μM", "result": "104.8 ± 10.3 % of control"}, {"measurement": "Burst duration (% of control) CA3", "setting": "[1]; CBDV 10 μM", "result": "93.9 ± 4.1 % of control"}, {"measurement": "Burst amplitude (% of control) DG", "setting": "[1]; CBDV 10 μM", "result": "86.4 ± 3.6 % of control"}, {"measurement": "Burst duration (% of control) DG", "setting": "[1]; CBDV 10 μM", "result": "92.0 ± 3.2 % of control"}, {"measurement": "Burst amplitude (% of control) CA1", "setting": "[1]; CBDV 100 μM", "result": "80.4 ± 8.0 % of control"}, {"measurement": "Burst duration (% of control) CA1", "setting": "[1]; CBDV 100 μM", "result": "74.0 ± 5.8 % of control"}, {"measurement": "Burst amplitude (% of control) CA3", "setting": "[1]; CBDV 100 μM", "result": "102.9 ± 13.0 % of control"}, {"measurement": "Burst duration (% of control) CA3", "setting": "[1]; CBDV 100 μM", "result": "78.5 ± 6.6 % of control"}, {"measurement": "Burst amplitude (% of control) DG", "setting": "[1]; CBDV 100 μM", "result": "79.5 ± 5.6 % of control"}, {"measurement": "Burst duration (% of control) DG", "setting": "[1]; CBDV 100 μM", "result": "75.6 ± 5.4 % of control"}, {"measurement": "proportion of animals that died", "setting": "PTZ-induced seizures [2]; 100 mg/kg CBDV i.p., 80 mg/kg PTZ, p=0.002", "result": "1 out of 15"}, {"measurement": "proportion of animals reaching tonic-clonic seizures", "setting": "PTZ-induced seizures [2]; 100 mg/kg CBDV i.p., 80 mg/kg PTZ, p=0.036", "result": "4 of 15"}, {"measurement": "latency to seizure onset vs vehicle", "setting": "PTZ-induced seizures [2]; 200 mg/kg CBDV i.p. 1 hour before 80 mg/kg PTZ, p=0.03", "result": "significantly higher"}, {"measurement": "median seizure severity vs vehicle", "setting": "PTZ-induced seizures [2]; 200 mg/kg CBDV i.p., 80 mg/kg PTZ, p=0.014", "result": "significantly lower"}, {"measurement": "latency to clonic seizures vs vehicle", "setting": "PTZ-induced seizures [2]; 200 mg/kg CBDV i.p., 80 mg/kg PTZ, p=0.032", "result": "significant increase"}, {"measurement": "animals that experienced no seizure at all", "setting": "PTZ-induced seizures [2]; 200 mg/kg CBDV i.p., 80 mg/kg PTZ, vehicle 1 of 15, p=0.003", "result": "5 of 15"}, {"measurement": "proportion of animals that died", "setting": "PTZ-induced seizures [2]; 200 mg/kg CBDV i.p., 80 mg/kg PTZ, p<0.001", "result": "2 out of 15"}, {"measurement": "proportion of animals reaching tonic-clonic seizures", "setting": "PTZ-induced seizures [2]; 200 mg/kg CBDV i.p., 80 mg/kg PTZ, p=0.01", "result": "3 of 15"}, {"measurement": "latency to tonic-clonic seizures", "setting": "PTZ-induced seizures [2]; overall or at any specific dose (50, 100, 200 mg/kg CBDV i.p.), 80 mg/kg PTZ", "result": "No significant effect"}, {"measurement": "severity of the epilepsy, CBDV compared with SAED", "setting": "PTZ-induced seizures [3]; CBDV 200 mg/kg", "result": "lessen the severity of the epilepsy to a greater degree than the existing epileptic drug valproate"}, {"measurement": "mortality (independent effect when co-administered)", "setting": "PTZ-induced seizures [3]; [4]", "result": "significant decreases"}, {"measurement": "onset latency (independent effect when co-administered)", "setting": "PTZ-induced seizures [3]; [4]", "result": "significant decreases"}, {"measurement": "seizure severity (independent effect when co-administered)", "setting": "PTZ-induced seizures [3]; [4]", "result": "significant decreases"}]}
